Data from ChEMBL document CHEMBL1132530, “Picking the S1, S1' and S2' pockets of matrix metalloproteinases. A niche for potent acyclic sulfonamide inhibitors” (Bioorg Med Chem Lett, 1999).

Legend:
[1] = target: Stromelysin-1 (Homo sapiens, UniProt P08254); test: Inhibition of matrix metalloprotease-3
[2] = target: 72 kDa type IV collagenase (Homo sapiens, UniProt P08253); test: (§1) Inhibition of matrix metalloprotease-2
[3] = target: Matrix metalloproteinase-9 (Homo sapiens, UniProt P14780); test: Inhibition of matrix metalloprotease-9
Matrix metalloproteinase-9 (Homo sapiens, UniProt P14780), sequence (P14780 whole entry): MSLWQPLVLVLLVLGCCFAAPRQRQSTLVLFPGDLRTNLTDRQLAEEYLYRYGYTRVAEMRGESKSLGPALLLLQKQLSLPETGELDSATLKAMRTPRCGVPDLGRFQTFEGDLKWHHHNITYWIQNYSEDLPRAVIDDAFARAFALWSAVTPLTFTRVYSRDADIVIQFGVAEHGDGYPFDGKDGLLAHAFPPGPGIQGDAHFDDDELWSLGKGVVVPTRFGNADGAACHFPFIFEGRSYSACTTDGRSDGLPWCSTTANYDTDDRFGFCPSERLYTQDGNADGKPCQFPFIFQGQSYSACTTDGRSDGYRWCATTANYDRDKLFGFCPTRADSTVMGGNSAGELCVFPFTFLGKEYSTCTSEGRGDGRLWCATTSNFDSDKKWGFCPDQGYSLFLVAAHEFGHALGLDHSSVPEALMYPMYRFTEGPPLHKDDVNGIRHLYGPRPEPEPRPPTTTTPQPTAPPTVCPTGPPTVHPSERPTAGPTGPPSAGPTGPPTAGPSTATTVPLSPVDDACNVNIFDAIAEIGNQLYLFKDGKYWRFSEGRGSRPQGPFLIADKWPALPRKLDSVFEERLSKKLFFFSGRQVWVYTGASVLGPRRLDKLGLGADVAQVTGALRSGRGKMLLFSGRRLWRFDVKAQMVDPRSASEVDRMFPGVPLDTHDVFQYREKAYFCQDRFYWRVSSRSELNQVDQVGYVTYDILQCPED

[4] = target: T1, Interstitial collagenase (Homo sapiens, UniProt P03956); test: Inhibition of matrix metalloprotease-1
T1 sequence (P03956 whole entry): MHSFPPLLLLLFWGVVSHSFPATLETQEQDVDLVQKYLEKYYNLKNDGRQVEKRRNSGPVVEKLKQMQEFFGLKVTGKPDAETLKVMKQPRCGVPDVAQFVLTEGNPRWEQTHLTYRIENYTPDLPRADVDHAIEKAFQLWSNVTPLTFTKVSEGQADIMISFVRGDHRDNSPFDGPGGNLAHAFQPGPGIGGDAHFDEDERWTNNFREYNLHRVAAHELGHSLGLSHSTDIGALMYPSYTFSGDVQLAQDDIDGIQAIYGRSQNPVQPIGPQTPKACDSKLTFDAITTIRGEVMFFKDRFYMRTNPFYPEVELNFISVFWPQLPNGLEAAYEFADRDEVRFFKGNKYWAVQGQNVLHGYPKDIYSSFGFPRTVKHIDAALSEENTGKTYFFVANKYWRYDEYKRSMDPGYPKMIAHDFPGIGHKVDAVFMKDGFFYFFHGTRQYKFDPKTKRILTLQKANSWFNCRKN

[5] = target: Collagenase 3 (Homo sapiens, UniProt P45452); test: Inhibition of matrix metalloprotease-13
[6] = target: Matrix metalloproteinase-9 (Mus musculus, UniProt P41245); test: Inhibitory concentration required against matrix metalloprotease-9 (MMP-9 gelatinase B)
Matrix metalloproteinase-9 (Mus musculus, UniProt P41245), sequence (P41245 whole entry): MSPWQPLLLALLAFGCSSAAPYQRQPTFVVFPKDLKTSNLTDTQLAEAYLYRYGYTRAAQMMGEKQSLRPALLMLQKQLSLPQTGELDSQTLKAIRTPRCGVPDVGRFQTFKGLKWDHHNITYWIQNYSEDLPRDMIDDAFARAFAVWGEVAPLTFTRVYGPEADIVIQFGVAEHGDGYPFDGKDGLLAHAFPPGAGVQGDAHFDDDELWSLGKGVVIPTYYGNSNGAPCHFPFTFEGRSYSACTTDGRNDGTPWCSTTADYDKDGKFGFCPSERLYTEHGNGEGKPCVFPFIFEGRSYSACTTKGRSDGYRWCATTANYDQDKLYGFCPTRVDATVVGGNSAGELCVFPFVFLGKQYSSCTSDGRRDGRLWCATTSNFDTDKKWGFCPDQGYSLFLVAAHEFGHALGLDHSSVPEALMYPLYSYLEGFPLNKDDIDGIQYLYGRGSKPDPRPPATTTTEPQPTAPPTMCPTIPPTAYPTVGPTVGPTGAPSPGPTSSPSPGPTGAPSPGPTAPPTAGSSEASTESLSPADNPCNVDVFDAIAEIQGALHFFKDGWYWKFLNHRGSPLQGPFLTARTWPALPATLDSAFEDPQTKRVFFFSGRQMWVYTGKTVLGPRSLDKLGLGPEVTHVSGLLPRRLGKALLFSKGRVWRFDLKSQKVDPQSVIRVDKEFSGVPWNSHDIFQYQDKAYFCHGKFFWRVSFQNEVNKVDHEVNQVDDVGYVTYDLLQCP

[7] = target: 72 kDa type IV collagenase (Mus musculus, UniProt P33434); test: as §1
72 kDa type IV collagenase (Mus musculus, UniProt P33434), sequence (P33434 whole entry): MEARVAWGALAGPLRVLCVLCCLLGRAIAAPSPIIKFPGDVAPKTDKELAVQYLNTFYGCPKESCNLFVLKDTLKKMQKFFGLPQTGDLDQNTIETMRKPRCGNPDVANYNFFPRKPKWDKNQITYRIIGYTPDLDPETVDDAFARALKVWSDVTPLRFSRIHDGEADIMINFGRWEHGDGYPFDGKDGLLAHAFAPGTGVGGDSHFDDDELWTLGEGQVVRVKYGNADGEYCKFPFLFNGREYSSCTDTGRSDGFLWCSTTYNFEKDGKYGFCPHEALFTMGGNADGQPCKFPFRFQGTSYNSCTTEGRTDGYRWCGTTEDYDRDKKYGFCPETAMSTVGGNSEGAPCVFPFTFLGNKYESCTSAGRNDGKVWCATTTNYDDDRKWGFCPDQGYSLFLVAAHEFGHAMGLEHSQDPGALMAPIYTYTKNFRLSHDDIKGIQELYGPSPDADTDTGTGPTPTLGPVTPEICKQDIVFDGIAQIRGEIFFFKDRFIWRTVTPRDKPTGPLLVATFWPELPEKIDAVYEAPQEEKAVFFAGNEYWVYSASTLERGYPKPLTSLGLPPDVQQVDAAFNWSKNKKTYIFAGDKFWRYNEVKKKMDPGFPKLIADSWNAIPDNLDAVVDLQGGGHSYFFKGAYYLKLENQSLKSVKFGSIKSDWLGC

72 kDa type IV collagenase (Homo sapiens, UniProt P08253), sequence (P08253 whole entry): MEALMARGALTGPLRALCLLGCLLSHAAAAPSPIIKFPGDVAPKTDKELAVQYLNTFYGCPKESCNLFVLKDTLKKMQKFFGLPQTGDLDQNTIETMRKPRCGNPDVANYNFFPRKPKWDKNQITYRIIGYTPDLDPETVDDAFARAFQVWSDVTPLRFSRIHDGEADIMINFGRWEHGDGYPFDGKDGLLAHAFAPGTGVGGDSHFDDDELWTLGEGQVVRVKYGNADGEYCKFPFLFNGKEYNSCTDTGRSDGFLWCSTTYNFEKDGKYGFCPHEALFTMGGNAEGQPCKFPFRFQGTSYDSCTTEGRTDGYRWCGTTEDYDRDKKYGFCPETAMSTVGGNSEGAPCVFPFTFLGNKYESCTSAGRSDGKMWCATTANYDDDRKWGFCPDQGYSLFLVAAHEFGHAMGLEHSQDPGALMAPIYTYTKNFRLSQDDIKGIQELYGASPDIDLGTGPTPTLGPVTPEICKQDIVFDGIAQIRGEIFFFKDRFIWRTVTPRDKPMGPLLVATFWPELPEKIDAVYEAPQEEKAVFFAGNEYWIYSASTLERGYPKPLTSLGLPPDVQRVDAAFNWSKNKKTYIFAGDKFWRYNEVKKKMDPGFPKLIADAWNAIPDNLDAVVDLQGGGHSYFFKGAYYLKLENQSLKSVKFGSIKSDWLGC
Stromelysin-1, sequence (P08254 whole entry): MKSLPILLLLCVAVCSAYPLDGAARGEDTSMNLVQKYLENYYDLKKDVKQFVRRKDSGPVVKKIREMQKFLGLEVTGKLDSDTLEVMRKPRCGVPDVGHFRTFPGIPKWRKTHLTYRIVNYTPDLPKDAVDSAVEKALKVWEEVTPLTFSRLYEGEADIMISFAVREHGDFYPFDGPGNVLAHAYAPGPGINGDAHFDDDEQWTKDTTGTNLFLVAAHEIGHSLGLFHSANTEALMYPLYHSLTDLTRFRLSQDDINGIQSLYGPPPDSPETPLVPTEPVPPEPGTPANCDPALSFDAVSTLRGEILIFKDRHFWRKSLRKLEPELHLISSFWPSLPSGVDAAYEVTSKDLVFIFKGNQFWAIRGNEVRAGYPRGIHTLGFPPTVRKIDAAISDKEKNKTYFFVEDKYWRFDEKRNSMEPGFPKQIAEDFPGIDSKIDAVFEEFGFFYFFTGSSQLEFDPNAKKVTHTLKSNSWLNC

| IC50 [1] [nM] | IC50 [2] [nM] | IC50 [3] [nM] | IC50 [4] [nM] | IC50 [5] [nM] | IC50 [6] [nM] | IC50 [7] [nM] | SMILES |
| --- | --- | --- | --- | --- | --- | --- | --- |
| 20 | 30 | 0.2 |  |  |  |  | COc1ccc(S(=O)(=O)N(CC(C)C)[C@@H](CCSCc2ccc(-c3ccccc3)cc2)C(=O)NO)cc1 |
| 0.7 | 0.7 | 2.5 | 104 | 12 |  |  | COc1ccc(S(=O)(=O)N(CC(C)C)[C@@H](CCSCc2ccccc2)C(=O)NO)cc1 |
| 29 |  | 8 |  |  |  |  | COc1ccc(S(=O)(=O)N(CC(C)C)[C@@H](CCSCc2ccc(OCc3ccccc3)cc2)C(=O)NO)cc1 |
| 45 | 53 | 7 | 384 | 96 |  |  | CC[C@@H](C(=O)NO)N(CC(C)C)S(=O)(=O)c1ccc(OC)cc1 |
| 3.7 |  |  |  | 4.5 | 0.5 | 2.3 | COc1ccc(S(=O)(=O)N(CC(=O)NC(c2ccccc2)c2ccccc2)[C@H](CCSCc2ccccc2)C(=O)NO)cc1 |
| 37 | 0.7 | 0.2 | 156 | 3 |  |  | CSCC[C@@H](C(=O)NO)N(CC(C)C)S(=O)(=O)c1ccc(-c2ccccc2)cc1 |
|  |  |  |  |  | 10 | 15 | COc1ccc(S(=O)(=O)N(Cc2cccnc2)[C@@H](C(=O)NO)C(C)C)cc1 [CGS-27023A] |

| SMILES | IC50 [1] [nM] | IC50 [2] [nM] | IC50 [3] [nM] | IC50 [4] [nM] | IC50 [5] [nM] | IC50 [6] [nM] | IC50 [7] [nM] |
| --- | --- | --- | --- | --- | --- | --- | --- |
| CC(C)CN([C@@H](CCSCc1ccccc1)C(=O)NO)S(=O)(=O)c1ccc(-c2ccccc2)cc1 | 90 |  |  |  | 3.8 | 2.5 | 4.1 |
